# Test results published in patent publication US8957017B2, “Dipeptoid prodrugs and their use” (Bayer Intellectual Property GmbH, priority 2007, dated 2015).
# Counter-ions that a name gives are not always drawn.
# What was measured:
# [1] = Determination of the solubility in 5% strength aqueous dextrose solution; format: physicochemical; details: saline or isotonic, thermodynamic from solid, room temperature, 24 h
# Experimental: a) Determination of the Solubility:
# The test substance is suspended in 5% strength aqueous dextrose solution. This suspension is shaken at room temperature for 24 h. After ultracentrifugation at 224 000 g for 30 min, the supernatant is diluted with DMSO and analysed by HPLC. A two-point calibration plot of the test compound in DMSO is used for quantification.
# Agilent 1100 with DAD (G1315A), quat. Pump (G1311A), autosampler CTC HTS PAL, degasser (G1322A) and column thermostat (G1316A); column: Phenomenex Gemini C18, 5 μm, 50 mm×2 mm; temperature: 40° C.; eluent A: water/phosphoric acid pH 2, eluent B: acetonitrile; flow rate: 0.7 ml/min; gradient: 0-0.5 min 85% A, 15% B; ramp 0.5-3 min 10% A, 90% B; 3-3.5 min 10% A, 90% B; ramp 3.5-4 min 85% A, 15% B; 4-5 min 85% A, 15% B.
# Agilent 1100 with DAD (G1315A), quat. pump (G1311A), autosampler CTC HTS PAL, degasser (G1322A) and column thermostat (G1316A); column: VDSoptilab Kromasil 100 C18, 3.5 μm, 60 mm×2.1 mm; temperature: 30° C.; eluent A: water+5 ml of perchloric acid/liter, eluent B: acetonitrile; flow rate: 0.75 ml/min; gradient: 0-0.5 min 98% A, 2% B; ramp 0.5-4.5 min 10% A, 90% B; 4.5-6 min 10% A, 90% B; ramp 6.5-6.7 min 98% A, 2% B; 6.7-7.5 min 98% A, 2% B.
# [2] = Stability in buffer at various pH values; format: physicochemical
# Experimental: b) Stability in Buffer at Various pH Values:
# 0.3 mg of the test substance is weighed into a 2 ml HPLC vial and 0.5 ml of acetonitrile or acetonitrile/DMSO (9:1) is added. The substance is dissolved by putting the sample vessel in an ultrasonic bath for about 10 seconds. Then 0.5 ml of the respective buffer solution is added, and the sample is again treated in the ultrasonic bath.
# pH 2: 0.03 mol of citric acid, 0.061 mol of sodium chloride and 0.0082 mol of hydrochoric acid ad 1 liter of water;
# pH 4: 1 liter of Millipore water is adjusted to pH 4.0 with 1 N hydrochloric acid;
# pH 5: 0.096 mol of citric acid and 0.2 mol of sodium hydroxide ad 1 liter of water;
# pH 6: 0.06 mol of citric acid and 0.16 mol of sodium hydroxide ad 1 liter of water;
# pH 7.4: 90.0 g of sodium chloride, 13.61 g of potassium dihydrogen phosphate and 83.35 g of 1 N sodium hydroxide solution are made up to 1 liter with water; this solution is then further diluted 1:10 with Millipore water.
# pH 8: 0.013 mol of borax and 0.021 mol of hydrochloric acid ad 1 liter of water.
# 5 μl portions of the test solution are analyzed by HPLC for their content of unchanged test substance, and of parent substance (A) produced, every hour over a period of 24 hours at 37° C. The percentage areas of the appropriate peaks are used for quantification.
# The ratios of the peak areas (F) at the respective time points in relation to the peak areas at the starting time are shown in Table 2 for representative exemplary embodiments: […]
# [3] = Oral pharmacokinetics in Wistar rats; format: in vivo; details: after oral administration by gavage, male Wistar rats
# Experimental: e) Oral Pharmacokinetics in Wistar Rats:
# (§1) On the day before administration of the substance, a catheter for obtaining blood is implanted in the jugular vein of the experimental animals (male Wistar rats, body weight 200-250 g) under Isofluran® anesthesia.
# (§2) On the day of the experiment, a defined dose of the test substance is administered as solution into the stomach by gavage. Blood samples (8-12 time points) are taken through the catheter sequentially over the course of 24 h after administration of the substance. Plasma is obtained by centrifuging the samples in heparinized tubes. Acetonitrile is added to a defined plasma volume per time point to precipitate proteins. After centrifugation, test substance and, where appropriate, known cleavage products of the test substance in the supernatant are determined quantitatively using a suitable LC/MS-MS method.
# The measured plasma concentrations are used to calculate pharmacokinetic parameters of the test substance and of the active ingredient compound (A) liberated therefrom, such as AUC, Cmax, T1/2 (half-life).
# [4] = test system: heart rate of anesthetized rats; experiment: Influence on the heart rate of anesthetized rats; format: in vivo; details: maximum decrease in the first 30 min after i.v. bolus of 100 μg/kg of (A) or equivalent dosages; anesthetized male Wistar rats
# Experimental: f) Determination of the Influence on the Heart Rate of Anesthetized Rats:
# Male Wistar rats with a body weight above 250 g are employed. In the night before the experiment, the animals receive no feed but still have free access to drinking water. Preparation and investigations are carried out under Trapanal® anesthesia (100 mg/kg i.p.). Injection and infusion take place through a catheter in the jugular vein, and the blood pressure is recorded via a catheter in the femoral artery (transducer: Braun, Melsungen). After the preparation, the animals are connected to a continuous infusion of physiological saline solution to compensate fluid losses. Test substance or placebo solution are administered as bolus after an equilibration time of about 1 h. Heart rate and arterial blood pressure are recorded during the equilibration and over a period of at least 30 min after the bolus injection with the aid of a digital evaluation program.
# Table 4 lists the maximum heart rate decrease in the first 30 min after an i.v. bolus of 100 μg/kg of the active substance (A) or of equivalent dosages of representative exemplary embodiments: […]
# [5] = i.v. pharmacokinetics in Wistar rats; format: in vivo; details: after i.v. bolus administration, male Wistar rats
# Experimental: d) i.v. Pharmacokinetics in Wistar Rats:
# as §1
# as §2, with “tail vein using a Hamilton® glass syringe (bolus administration, duration of administration <10 s).” for “stomach by gavage.”
# The measured plasma concentrations are used to calculate pharmacokinetic parameters of the test substance and of the active ingredient compound (A) liberated therefrom, such as AUC, Cmax, T1/2 (half-life) and CL (clearance).
solubility thermodynamic at 24 h [1] [µg/mL],"% test substance after 4 h [F(t = 4 h) × 100/F(t = 0 h)] ([2]; pH 2, 37° C.) [%]","% test substance after 24 h [F(t = 24 h) × 100/F(t = 0 h)] ([2]; pH 2, 37° C.) [%]","% test substance after 4 h [F(t = 4 h) × 100/F(t = 0 h)] ([2]; pH 4, 37° C.) [%]","% test substance after 24 h [F(t = 24 h) × 100/F(t = 0 h)] ([2]; pH 4, 37° C.) [%]","% test substance after 4 h [F(t = 4 h) × 100/F(t = 0 h)] ([2]; pH 5, 37° C.) [%]","% test substance after 24 h [F(t = 24 h) × 100/F(t = 0 h)] ([2]; pH 5, 37° C.) [%]","% test substance after 4 h [F(t = 4 h) × 100/F(t = 0 h)] ([2]; pH 6, 37° C.) [%]","% test substance after 24 h [F(t = 24 h) × 100/F(t = 0 h)] ([2]; pH 6, 37° C.) [%]","% test substance after 4 h [F(t = 4 h) × 100/F(t = 0 h)] ([2]; pH 7.4, 37° C.) [%]","% test substance after 24 h [F(t = 24 h) × 100/F(t = 0 h)] ([2]; pH 7.4, 37° C.) [%]","% test substance after 4 h [F(t = 4 h) × 100/F(t = 0 h)] ([2]; pH 8, 37° C.) [%]","% test substance after 24 h [F(t = 24 h) × 100/F(t = 0 h)] ([2]; pH 8, 37° C.) [%]",Structure (SMILES),detectability of test substance in plasma [3],Heart rate decrease [4] [%],detectability of test substance in plasma [5]
> 500,100,100,100,100,96,80,78,25,8,0,,,"N#Cc1c(N)nc(SCc2csc(-c3ccc(Cl)cc3)n2)c(C#N)c1-c1ccc(OCCOC(=O)CC[C@H](N)C(=O)NCCN)cc1 [Example 6, 2-{4-[2-Amino-6-({[2-(4-chlorophenyl)-1,3-thiazol-4-yl]methyl}thio)-3,5-dicyanopyridin-4-yl]-phenoxy}ethyl N-(2-aminoethyl)-L-α-glutaminate dihydrochloride]",no longer detectable in plasma even at the first measurement point,17,no longer detectable in plasma even at the first measurement point
> 500,,,100,100,100,98,95,70,,,,,"N#Cc1c(N)nc(SCc2csc(-c3ccc(Cl)cc3)n2)c(C#N)c1-c1ccc(OCCOC(=O)[C@H](CO)NC(=O)[C@@H](N)CCCCN)cc1 [Example 5, 2-{4-[2-Amino-6-({[2-(4-chlorophenyl)-1,3-thiazol-4-yl]methyl}thio)-3,5-dicyanopyridin-4-yl]-phenoxy}ethyl L-lysyl-L-serinate dihydrochloride]",no longer detectable in plasma even at the first measurement point,12,no longer detectable in plasma even at the first measurement point
> 500,,,100,100,100,98,97,84,48,2,,,"C[C@H](NC(=O)[C@@H](N)CCCCN)C(=O)OCCOc1ccc(-c2c(C#N)c(N)nc(SCc3csc(-c4ccc(Cl)cc4)n3)c2C#N)cc1 [Example 4, 2-{4-[2-Amino-6-({[2-(4-chlorophenyl)-1,3-thiazol-4-yl]methyl}thio)-3,5-dicyanopyridin-4-yl]-phenoxy}ethyl L-lysyl-L-alaninate dihydrochloride]",no longer detectable in plasma even at the first measurement point,19,no longer detectable in plasma even at the first measurement point
100,,,100,98,,,,,51,2,,,"N#Cc1c(N)nc(SCc2csc(-c3ccc(Cl)cc3)n2)c(C#N)c1-c1ccc(OCCOC(=O)[C@@H](N)CCC(=O)NCCN)cc1 [Example 7, dihydrochloride]",,15,no longer detectable in plasma even at the first measurement point
> 500,,,100,100,,,100,100,99,96,99,90,"CC(C)[C@H](NC(=O)[C@@H](N)CCCCN)C(=O)OCCOc1ccc(-c2c(C#N)c(N)nc(SCc3csc(-c4ccc(Cl)cc4)n3)c2C#N)cc1 [Example 1, 2-{4-[2-Amino-6-({[2-(4-chlorophenyl)-1,3-thiazol-4-yl]methyl}thio)-3,5-dicyanopyridin-4-yl]-phenoxy}ethyl L-lysyl-L-valinate dihydrochloride]",,10,
